According to ChEMBL document CHEMBL4665893, “Scalable Synthesis, In Vitro cccDNA Reduction, and In Vivo Antihepatitis B Virus Activity of a Phosphonomethoxydeoxythreosyl Adenine Prodrug” (J Med Chem, 2020):

Test: Plasma concentration in C57BL/6 mouse at 6 mg/kg, po administered as single dose after 0.25 to 24 hrs by LC/MS/MS analysis
Format: ADME, organism-based
Conditions: in vivo, time 0.25-24 hrs

Cp: < 1.01 ng/mL
SMILES: Nc1ncnc2c1ncn2[C@H]1C[C@@H](OCP(=O)(O)O)CO1
